# Assay results taken from ChEMBL document CHEMBL4049458, “Structure-Based Optimization of Thiophene[3,2-d]pyrimidine Derivatives as Potent HIV-1 Non-nucleoside Reverse Transcriptase Inhibitors with Improved Potency against Resistance-Associated Variants” (J Med Chem, 2017).
# Tests used:
# [1] = Selectivity index, ratio of CC50 for human MT4 cells to EC50 for reverse transcriptase E138K mutant in human MT4 cells infected HIV1 3B
# [2] = Selectivity index, ratio of CC50 for human MT4 cells to EC50 for wild type HIV1 3B harboring reverse transcriptase infected in human MT4 cells
# [3] = system: Human immunodeficiency virus 1; test: Antiviral activity against wild type HIV1 3B harboring reverse transcriptase infected in human MT4 cells assessed as protection against virus induced cytotoxicity after 5 days by MTT assay; format: functional, cell-based; details: Human immunodeficiency virus 1, 3B, MT4, 120 h
# [4] = Selectivity index, ratio of CC50 for human MT4 cells to EC50 for reverse transcriptase L100I mutant in human MT4 cells infected HIV1 3B
# [5] = Selectivity index, ratio of CC50 for human MT4 cells to EC50 for HIV1 RES056 reverse transcriptase K103N/Y181C double mutant infected in human MT4 cells
# [6] = Selectivity index, ratio of CC50 for human MT4 cells to EC50 for reverse transcriptase K103N mutant in human MT4 cells infected HIV1 3B
# [7] = Selectivity index, ratio of CC50 for human MT4 cells to EC50 for reverse transcriptase Y181C mutant in human MT4 cells infected HIV1 3B
# [8] = Cytotoxicity against human MT4 cells assessed as cell viability after 5 days by MTT assay; format: cell-based
# [9] = Selectivity index, ratio of CC50 for human MT4 cells to EC50 for reverse transcriptase F227L/V106A double mutant in human MT4 cells infected HIV1 3B
# [10] = system: Human immunodeficiency virus 2; test: Antiviral activity against HIV2 ROD harboring reverse transcriptase infected in human MT4 cells assessed as protection against virus induced cytotoxicity after 5 days by MTT assay; format: functional, cell-based; details: Human immunodeficiency virus 2, ISOLATE ROD, MT4, 120 h
# [11] = Selectivity index, ratio of CC50 for human MT4 cells to EC50 for reverse transcriptase Y188L mutant in human MT4 cells infected HIV1 3B
SMILES,selectivity ratio ([1]; MT4 cells),selectivity ratio ([2]; MT4 cells),EC50 [3] [nM],selectivity ratio ([4]; MT4 cells),selectivity ratio ([5]; MT4 cells),selectivity ratio ([6]; MT4 cells),selectivity ratio ([7]; MT4 cells),CC50 at 120 h [8] [µM],selectivity ratio ([9]; MT4 cells),EC50 [10] [µM],selectivity ratio ([11]; MT4 cells),selectivity ratio [1],selectivity ratio [2],selectivity ratio [4],selectivity ratio [5],selectivity ratio [6],selectivity ratio [7],selectivity ratio [9],selectivity ratio [11]
Cc1cc(C#N)cc(C)c1Oc1nc(NC2CCC(NCc3ccc(F)cc3)CC2)nc2ccsc12 (stereo unspecified),≤ 2,5,553,3,< 1,3,< 1,2.76,< 1,> 2.76,< 1,,,,,,,,
Cc1cc(/C=C/C#N)cc(C)c1Oc1nc(NC2CCN(Cc3ccccc3F)CC2)nc2ccsc12,74,392,6.34,32,14,361,83,2.48,61,> 2.48,18,,,,,,,,
Cc1cc(/C=C/C#N)cc(C)c1Oc1nc(NC2CCN(Cc3ccc([N+](=O)[O-])cc3)CC2)nc2ccsc12,86,456,7.73,134,32,365,115,3.52,33,> 3.52,30,,,,,,,,
Cc1cc(/C=C/C#N)cc(C)c1Oc1nc(NC2CCN(Cc3ccccc3Br)CC2)nc2ccsc12,39,140,40.2,117,16,124,45,5.61,63,> 5.61,37,,,,,,,,
O=C1Nc2ccc(Cl)cc2[C@@](C#CC2CC2)(C(F)(F)F)O1 [EFAVIRENZ],,,,,,,,> 6.33,,,,,,,,,,,
Cc1cc(/C=C/C#N)cc(C)c1Oc1nc(NC2CCN(Cc3ccc(C(N)=O)cc3)CC2)nc2ccsc12,,,1.26,,,,,≥ 3.15,,,,,,,,,,,
CCOC(=O)C1CN(Cc2ccc(S(N)(=O)=O)cc2)CCC1Nc1nc(Oc2c(C)cc(C#N)cc2C)c2sccc2n1 (stereo unspecified),7,32,134,11,≤ 5,18,23,4.24,3,> 4.24,< 1,,,,,,,,
Cc1cc(/C=C/C#N)cc(C)c1Oc1nc(NC2CCN(Cc3cccc(Cl)c3)CC2)nc2ccsc12,37,188,25.9,163,33,164,69,4.88,72,> 4.88,29,,,,,,,,
COC(=O)c1ccc(CN2CCC(Nc3nc(Oc4c(C)cc(C#N)cc4C)c4ccsc4n3)CC2)cc1,805,5450,5.26,214,19,982,316,28.6,109,> 28.6,181,,,,,,,,
Cc1cc(C#N)cc(C)c1Oc1nc(NC2CCN(Cc3ccc(S(N)(=O)=O)cc3)CC2C(=O)O)nc2ccsc12 (stereo unspecified),8,38,723,17,< 1,33,8,27.6,11,> 27.6,9,,,,,,,,
Cc1cc(C#N)cc(C)c1Oc1nc(NC2CCN(Cc3cccc(C(N)=O)c3)CC2)nc2sccc12,> 5610,> 9420,5.17,> 4630,> 10,> 5490,> 5300,> 48.7,> 1930,> 48.7,> 2870,,,,,,,,
Cc1cc(C#N)cc(C)c1Oc1nc(NC2CCC(NCc3ccccc3)CC2)nc2ccsc12 (stereo unspecified),3,13,230,3,< 1,4,< 1,2.97,3,> 2.97,< 1,,,,,,,,
Cc1cc(C#N)cc(C)c1Oc1nc(NC2CCCN(Cc3ccc(S(N)(=O)=O)cc3)C2)nc2ccsc12 (stereo unspecified),,,> 1170,,,,,1.17,,,,,,,,,,,
Cc1cc(/C=C/C#N)cc(C)c1Oc1nc(NC2CCN(Cc3ccccn3)CC2)nc2ccsc12,517,1150,3.36,210,32,724,418,3.85,144,> 3.85,92,,,,,,,,
Cc1cc(/C=C/C#N)cc(C)c1Oc1nc(NC2CCN(Cc3cccc(C(N)=O)c3)CC2)nc2ccsc12,551,1080,3.26,689,81,1190,563,3.53,448,> 3.53,129,,,,,,,,
Cc1cc(C#N)cc(C)c1Oc1nc(NC2CCCN(Cc3ccc(C(N)=O)cc3)C2)nc2ccsc12 (stereo unspecified),,,3220,,,,,19.5,,,,,,,,,,,
Cc1cc(/C=C/C#N)cc(C)c1Oc1nc(NC2CCN(Cc3cccc(C#N)c3)CC2)nc2ccsc12,101,639,4.43,352,24,470,105,2.82,107,> 2.83,55,,,,,,,,
Cc1ccc(CN2CCC(Nc3nc(Oc4c(C)cc(/C=C/C#N)cc4C)c4sccc4n3)CC2)cc1,90,326,8.91,91,20,258,98,2.91,22,> 2.91,21,,,,,,,,
Cc1ccnc2c1NC(=O)c1cccnc1N2C1CC1 [NEVIRAPINE],,,,,,,,> 15,,,,,,,,,,,
Cc1cc(C#N)cc(C)c1Oc1nc(NC2CCC(NCc3ccc(C(N)=O)cc3)CC2)nc2ccsc12 (stereo unspecified),,,121,,,,,7.72,,,,,,,,,,,
Cc1cc(C#N)cc(C)c1Oc1nc(NC2CCC(NCc3cccc(C(N)=O)c3)CC2)nc2ccsc12 (stereo unspecified),,,135,,,,,9.21,,,,,,,,,,,
Cc1cn([C@H]2C[C@H](N=[N+]=[N-])[C@@H](CO)O2)c(=O)[nH]c1=O [ZIDOVUDINE],,,5.81,,,,,> 7.48,,,,> 1030,625,> 1990,> 675,> 1430,> 1120,> 1560,> 1180
